Test results reported in PubChem BioAssay (NCI).
Values joined by “and” are separate entries in the source; they are usually repeats but may differ in a detail not shown here. Identical values can stand only once.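 Method: 48-hour compound exposure of cells in 96-well plates, five concentrations, linear interpolation of endpoints. GI50 is the concentration that inhibits growth by half. TGI is the concentration that stops growth completely.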

What was measured:
Assay in all cases: DTP human tumour cell line panel, 48 h
EKVX NSCLC = tested on: EKVX NSCLC
SK-MEL-2 melanoma = tested on: SK-MEL-2 melanoma
MCF7 breast = tested on: MCF7 breast
MDA-MB-435 = tested on: MDA-MB-435
OVCAR-5 ovarian = tested on: OVCAR-5 ovarian
RPMI-8226 leukemia = tested on: RPMI-8226 leukemia
OVCAR-4 ovarian = tested on: OVCAR-4 ovarian
NCI-H460 lung = tested on: NCI-H460 lung
LOX IMVI melanoma = tested on: LOX IMVI melanoma
HCC-2998 colon = tested on: HCC-2998 colon

SMILES	GI50 (EKVX NSCLC)	TGI (EKVX NSCLC)	GI50 (SK-MEL-2 melanoma)	TGI (SK-MEL-2 melanoma)	GI50 (MCF7 breast)	TGI (MCF7 breast)	GI50 (MDA-MB-435)	TGI (MDA-MB-435)	GI50 (OVCAR-5 ovarian)	TGI (OVCAR-5 ovarian)	GI50 (RPMI-8226 leukemia)	TGI (RPMI-8226 leukemia)	GI50 (OVCAR-4 ovarian)	TGI (OVCAR-4 ovarian)	GI50 (NCI-H460 lung)	TGI (NCI-H460 lung)	GI50 (LOX IMVI melanoma)	TGI (LOX IMVI melanoma)	GI50 (HCC-2998 colon)	TGI (HCC-2998 colon)
C=C(C)[C@@H]1CC[C@]2(C(N)=O)CC[C@]3(C)[C@H](CC[C@@H]4[C@@]5(C)CC[C@H](O)C(C)(C)[C@@H]5CC[C@]43C)[C@@H]12	2.96 µM	18.2 µM	7.63 µM	36.8 µM	2.91 µM	11.2 µM	8.65 µM	> 100 µM	3.78 µM	16.5 µM	3.53 µM	24.9 µM	3.54 µM	19.8 µM	2.12 µM	4.84 µM	1.77 µM	3.23 µM	3.96 µM	12.9 µM
COc1ccccc1/C=C/C(=O)c1c(O)cc2occc2c1OC	37.1 µM	> 100 µM	> 100 µM	> 100 µM	9.56 µM	> 100 µM	5.96 µM	> 100 µM	> 100 µM	> 100 µM	23.5 µM	> 100 µM	> 100 µM	> 100 µM	> 100 µM	> 100 µM	30.1 µM	> 100 µM	> 100 µM	> 100 µM
COc1ccccc1-c1cc(/C=C2\C(=O)Nc3ncc(Br)cc32)cc(Br)c1O	11.2 µM	> 25 µM	8.89 µM	> 25 µM	8.05 µM	> 25 µM	7.47 µM	> 25 µM	> 25 µM	> 25 µM	9.59 µM	> 25 µM	8.96 µM	> 25 µM	11.6 µM	> 25 µM	10.5 µM	> 25 µM	> 25 µM	> 25 µM
C[C@@H](N)C1CCC(C(=O)Nc2ccncc2)CC1 (stereo not given in full)	15 µM	> 100 µM	> 100 µM	> 100 µM	> 100 µM	> 100 µM	> 100 µM	> 100 µM	> 100 µM	> 100 µM	> 100 µM	> 100 µM	> 100 µM	> 100 µM	> 100 µM	> 100 µM	> 100 µM	> 100 µM	> 100 µM	> 100 µM
COC(=O)[C@H]1[C@@H](O)[C@@]2(O)c3c(OC)cc(O[C@@H]4O[C@@H]([C@H](O)CO)CO[C@H]4OC)cc3O[C@@]2(c2ccc(OC)cc2)[C@@H]1c1ccccc1	0.00659 µM	0.105 µM	0.00354 µM	0.0158 µM	0.00312 µM	0.033 µM	0.00358 µM	0.0143 µM	0.00383 µM	0.0311 µM	0.00314 µM	0.0113 µM	0.00506 µM	0.0484 µM	0.004 µM	0.0695 µM	0.00263 µM	0.00986 µM	0.00297 µM	0.0164 µM
O=Nc1ccc(O)c2ccccc12	1.88 µM	4.43 µM	1.7 µM	3.72 µM	1.81 µM	4.31 µM	0.33 µM	1.1 µM	2.13 µM	4.21 µM	2.4 µM	7.58 µM	1.17 µM	2.44 µM	3.66 µM	13.5 µM	0.668 µM	2.28 µM	3.31 µM	11.3 µM
COc1cc2c(F)nccc2cc1C(=O)N[C@@H](c1ccc(F)c(Cl)c1)[C@@H]1C[C@@H](O)CN1	2.02 µM	17.8 µM	11.4 µM	25.2 µM	0.575 µM	12.1 µM	2 µM	17 µM	13.1 µM	45.6 µM	7.72 µM	40.1 µM	8.59 µM	24.6 µM	0.623 µM	15.8 µM	10.2 µM	22.4 µM	0.875 µM	19.5 µM
O=C(c1ccc(OCCN2CCCCC2)cc1)c1c(-c2ccc(O)cc2)sc2cc(O)ccc12	9.34 µM and 12.8 µM	25.7 µM and 33.9 µM	15.8 µM and 14.9 µM	35.2 µM and 33.8 µM	1.48 µM	15.6 µM and 14 µM	1.94 µM and 4.2 µM	4.58 µM and 19.7 µM	16 µM and 20.6 µM	30.8 µM and 43.7 µM	5.54 µM and 2.41 µM	77 µM and > 23.1 µM	7.8 µM and 12.1 µM	20.5 µM and 36.8 µM	4.29 µM and 7.96 µM	17.1 µM and 25.9 µM	1.76 µM and 4.06 µM	3.45 µM and 15.1 µM	6.37 µM and 19.1 µM	19.2 µM and 36.8 µM
COC(=O)C(Cc1cnc[nH]1)NC(=O)CNC(=O)CCCn1c(=O)c2c3ccccc3n(C)c2n2nnc(-c3ccccc3)c12 (stereo not given)	> 100 µM	> 100 µM	> 100 µM	> 100 µM	> 100 µM	> 100 µM	> 100 µM	> 100 µM	> 100 µM	> 100 µM	> 100 µM	> 100 µM	> 100 µM	> 100 µM	> 100 µM	> 100 µM	> 100 µM	> 100 µM	> 100 µM	> 100 µM
NC(=O)C1c2ccccc2C=Cc2ccccc21	> 100 µM	> 100 µM	> 100 µM	> 100 µM	> 100 µM	> 100 µM	73.3 µM	> 100 µM	> 100 µM	> 100 µM	> 100 µM	> 100 µM	> 100 µM	> 100 µM	> 100 µM	> 100 µM	> 100 µM	> 100 µM	> 100 µM	> 100 µM
O=C(CSc1nc2ccccc2nc1-c1ccccc1)Nc1ccc(Cl)cc1	49.5 µM	> 100 µM	51.7 µM	> 100 µM	44.3 µM	> 100 µM	29.8 µM	> 100 µM	> 100 µM	> 100 µM	92.3 µM	> 100 µM	13.6 µM	> 100 µM	11.8 µM	36.8 µM	38.3 µM	> 100 µM	46.4 µM	> 100 µM
Cc1nc2ccccn2c1NC(=O)NNC(=S)Nc1ccc(Br)cc1	46.4 µM	> 100 µM	77.8 µM	> 100 µM	29.4 µM	> 100 µM	29.3 µM	70.6 µM	32.2 µM	> 100 µM	41.6 µM	> 100 µM	66.2 µM	> 100 µM	34.1 µM	> 100 µM	24 µM	67.3 µM	27.4 µM	73.1 µM
COC(=O)[C@@]1(Cc2ccccc2)[C@H]2c3cc(C(=O)N4CCCC4)n(Cc4ccc(OC)c(OC)c4)c3C[C@H]2CN1C(=O)c1ccccc1	9.84 µM	21.2 µM	8.76 µM	18.7 µM	13.8 µM	44.8 µM	11.7 µM	32.8 µM	9.19 µM	21.8 µM	10.8 µM	23.5 µM	16.4 µM	> 50 µM	9.12 µM	18.9 µM	9.12 µM	16.8 µM	8.86 µM	15.8 µM
CC1=CC(=O)CC(C)(C)C1(O)/C=C/C(C)=C/C(=O)O (stereo not given)		> 100 µM		> 100 µM		> 100 µM		> 100 µM		> 100 µM		> 100 µM		> 100 µM		> 100 µM		> 100 µM		> 100 µM
C[C@H]1CC[C@H]([C@@H](C)[C@H]2[C@@H](O)C[C@H]3[C@@H]4CC[C@H]5C[C@@H](O)CC[C@]5(C)[C@H]4CC[C@]23C)NC1		32.5 µM		46 µM		47.2 µM		32.3 µM		49.4 µM		30.7 µM		34.1 µM		39.7 µM		50.6 µM		35.5 µM
